Results reported in PMC10223470 (Molecules, 2023).

What was measured:
human 5-HT7 receptor = target: T1, human 5-HT7 receptor (Homo sapiens, UniProt P34969); experiment: Competition radioligand binding at human 5-HT7 receptor ([3H]-SB269970); details: mean ± SEM of 2 independent experiments, read-out: hu5-HT7 % inh. at 10 µM
T1 construct: expressed in transfected cells; host or cells: HEK293
Method: (§1) Competition radioligand binding assays were performed on membranes isolated from cell lines stably expressing the cloned human receptors, which were either in-house or commercially available. […] Assays (250 μL assay final volume) were carried out in 96-well polypropylene plates in duplicate. In short, the suspension of appropriate membrane protein was incubated in an assay buffer with the addition of the corresponding radioligand, in the presence or absence of a tested compound or reference compound. […] After the incubation, the content of the test plates was transferred to 96 well plates with glass fiber filter GF/B or GF/C, previously pretreated with polyethyleneimine (PEI), and rapidly filtered with the use of vacuum, followed by rapid washing with cold (4 °C) wash buffer. After that, the filter plates were dried at 60 °C for 1 h. Then, 30 μL of liquid scintillation cocktail (UniverSol-ES, MP Biomedicals, Solon, OH, USA) was added to each well of the filter plates, and the radioactivity was measured in a MicroBeta^2 microplate scintillation counter (PerkinElmer, Madrid, Spain).
(§2) Competition binding curves were fitted to a one-site competition binding model (Fit Ki) with the use of Prism 7 software (GraphPad, San Diego, CA, USA). logKi (log of the equilibrium dissociation constant (Ki)) values were obtained after constraining the concentration of radioligand employed in the assay and its dissociation constant (KD) as determined in saturation radioligand binding assays.

mice [1] = experiment: Spontaneous locomotor activity in mice; type: in vivo; details: for Distance Traveled after 10 min / Distance Traveled after 30 min: mean ± SEM, n=10
Method: (§3) The experiments were carried out on 6 weeks old naive Swiss male mice (Experimental Medicine Center (OMD), Lublin, Poland), weighing 28–30 g. The cages with mice were located in air-conditioned rooms maintaining the ambient temperature within the range of 23–25 °C. The animals were provided with a natural 12 h day/night cycle, replicating the day and night mode. Each testing group was represented by 8–10 animals, depending on the research schedule. All experiments were conducted according to the National Institute of Health Guidelines for the Care and Use of Laboratory Animals (8th edition) and to the European Community Council Directive for the Care and Use of Laboratory Animals of 22 September 2010 (2010/63/EU) and were approved by the Local Ethical Committee (number of ethical approval: 147/2018).
Compound 17 (25, 50, 75 mg/kg) was suspended in 1% Tween 80 in saline solution and was administered intraperitoneally (i.p.) 60 min before the test. Diazepam (DZ, Relanium, Polfa, Poland) at a dose of 1 mg/kg was diluted in 0.9% saline containing 1% Tween 80 and was administered subcutaneously (s.c.), 60 min before the test. Imipramine hydrochloride (30 mg/kg, Sigma-Aldrich was administered intraperitoneally (i.p.) 60 min before the test. D-amphetamine sulfate (3 mg/kg; Sigma-Aldrich, USA) was given subcutaneously (s.c.). Prior to administration, the agent was dissolved in saline and injected 30 min before the test. Control animals received an (i.p.) or (s.c.) injection of a respective vehicle. All compounds were injected in a manner generally accepted in experimental pharmacology, in an amount of 10 mL/kg body weight.
The measurement of the spontaneous locomotor activity was carried out using the OptoVarimex 4 Auto-Track device (Columbus Instruments, Columbus, OH, USA). Tested animals are kept in cages for 30 min. Their activity was recorded as interruptions of the light beams after 10 and 30 min of the test, and it was calculated automatically as a traveled distance in cm (±SEM). To determine whether compound 17 has an influence on amphetamine-induced hyperactivity, each mouse received 17 (25, 50 and 75 mg/kg; i.p.) and amphetamine (3 mg/kg; s.c.) 30 min after injection of 17 or vehicle and then spontaneous locomotor activity was measured.

mice [2] = experiment: Motor coordination, rotarod test; type: in vivo; details: 25, 50 and 75 mg/kg i.p., 60 min before testing
Method: as §3, with “147/2018). Compound 17 (25, 50, 75 mg/kg) was suspended in 1% Tween 80 in saline solution and was administered intraperitoneally (i.p.) 60 min before the test. […] Imipramine hydrochloride (30 mg/kg, Sigma-Aldrich was administered intraperitoneally (i.p.) 60 min before the test. […] Sigma-Aldrich, USA) was given subcutaneously (s.c.). Prior to administration, the agent was dissolved in saline and injected 30 min before the test. […] Motor coordination has been assessed in mice using the chimney test and the rotarod test, according to the procedure we had used before. […]” for “147/2018).”

human 5-HT1A receptor = target: T2, human 5-HT1A receptor (Homo sapiens, UniProt P08908); experiment: Competition radioligand binding at human 5-HT1A receptor ([3H]-8-OH-DPAT); details: mean ± SEM of 2 independent experiments, read-out: hu5-HT1A % inh. at 10 µM
T2 construct: expressed in transfected cells; host or cells: HEK293
T2 sequence (P08908 1-422): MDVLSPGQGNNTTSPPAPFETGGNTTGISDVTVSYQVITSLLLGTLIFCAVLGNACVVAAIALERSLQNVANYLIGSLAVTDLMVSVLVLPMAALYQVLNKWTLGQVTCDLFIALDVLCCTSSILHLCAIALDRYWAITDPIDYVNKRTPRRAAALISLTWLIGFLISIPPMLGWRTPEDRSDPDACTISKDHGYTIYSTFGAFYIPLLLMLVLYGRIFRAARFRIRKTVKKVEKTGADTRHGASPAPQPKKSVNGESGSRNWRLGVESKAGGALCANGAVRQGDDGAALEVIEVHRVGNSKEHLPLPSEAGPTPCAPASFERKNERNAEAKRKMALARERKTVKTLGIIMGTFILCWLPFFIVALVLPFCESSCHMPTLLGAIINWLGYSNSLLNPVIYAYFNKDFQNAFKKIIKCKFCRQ
Method: as §1, §2

[3] = 25 mg/kg i.p. 60 min before the test
[4] = 50 mg/kg i.p. 60 min before the test
[5] = 75 mg/kg i.p. 60 min before the test

T1 sequence (P34969 whole entry): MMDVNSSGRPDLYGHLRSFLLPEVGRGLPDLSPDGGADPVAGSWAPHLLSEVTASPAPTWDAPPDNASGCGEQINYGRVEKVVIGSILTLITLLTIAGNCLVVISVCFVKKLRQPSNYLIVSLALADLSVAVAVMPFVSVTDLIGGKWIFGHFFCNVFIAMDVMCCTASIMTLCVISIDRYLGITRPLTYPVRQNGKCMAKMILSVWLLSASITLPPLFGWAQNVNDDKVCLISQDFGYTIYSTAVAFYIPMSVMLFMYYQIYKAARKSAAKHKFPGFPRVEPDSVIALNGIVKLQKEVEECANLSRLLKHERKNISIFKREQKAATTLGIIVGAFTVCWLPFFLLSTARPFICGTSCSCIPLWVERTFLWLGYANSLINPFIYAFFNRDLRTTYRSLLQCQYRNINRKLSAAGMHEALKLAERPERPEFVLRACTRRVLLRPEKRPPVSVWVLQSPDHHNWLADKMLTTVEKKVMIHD

Compound: O=C(CCN1C(=O)CSc2ccccc21)Nc1ccc(Cl)cc1 [Compound 17, N-(4-Chlorophenyl)-3-(3-oxo-2,3-dihydro-4H-benzo[b][1,4]thiazin-4-yl)propanamide]
- inhibition at 10 µM (human 5-HT7 receptor): 5 ± 11%
- Distance Traveled after 10 min (mice [1]; [3]): 910.1 ± 139.3 cm
- Distance Traveled after 30 min (mice [1]; [3]): 2003 ± 355.7 cm
- Distance Traveled after 10 min (mice [1]; [4]): 855.9 ± 195.1 cm
- Distance Traveled after 30 min (mice [1]; [4]): 2345 ± 616.0 cm
- Distance Traveled after 10 min (mice [1]; [5]): 1200 ± 216.0 cm
- Distance Traveled after 30 min (mice [1]; [5]): 2983 ± 595.8 cm
- effect on locomotor activity versus the control group (mice [1]; 25, 50 and 75 mg/kg i.p., after 10 min and after 30 min): no statistically significant effects
- effect on behavior in the rotarod test (mice [2]): did not influence mice behavior
- inhibition at 10 µM (human 5-HT1A receptor): 29 ± 9%
